Holding throughout (assay): Cysteine liganding, probe competition
Holding throughout (assay type): binding

Assay [1] addresses T1, HERC5 E3 ISG15--protein ligase HERC5 (Homo sapiens, UniProt Q9UII4).
T1 construct: Cells were resuspended in cold PBS on ice and sonicated with a probe sonicator to achieve lysis; endogenous in cells
T1 sequence (Q9UII4 1-1024): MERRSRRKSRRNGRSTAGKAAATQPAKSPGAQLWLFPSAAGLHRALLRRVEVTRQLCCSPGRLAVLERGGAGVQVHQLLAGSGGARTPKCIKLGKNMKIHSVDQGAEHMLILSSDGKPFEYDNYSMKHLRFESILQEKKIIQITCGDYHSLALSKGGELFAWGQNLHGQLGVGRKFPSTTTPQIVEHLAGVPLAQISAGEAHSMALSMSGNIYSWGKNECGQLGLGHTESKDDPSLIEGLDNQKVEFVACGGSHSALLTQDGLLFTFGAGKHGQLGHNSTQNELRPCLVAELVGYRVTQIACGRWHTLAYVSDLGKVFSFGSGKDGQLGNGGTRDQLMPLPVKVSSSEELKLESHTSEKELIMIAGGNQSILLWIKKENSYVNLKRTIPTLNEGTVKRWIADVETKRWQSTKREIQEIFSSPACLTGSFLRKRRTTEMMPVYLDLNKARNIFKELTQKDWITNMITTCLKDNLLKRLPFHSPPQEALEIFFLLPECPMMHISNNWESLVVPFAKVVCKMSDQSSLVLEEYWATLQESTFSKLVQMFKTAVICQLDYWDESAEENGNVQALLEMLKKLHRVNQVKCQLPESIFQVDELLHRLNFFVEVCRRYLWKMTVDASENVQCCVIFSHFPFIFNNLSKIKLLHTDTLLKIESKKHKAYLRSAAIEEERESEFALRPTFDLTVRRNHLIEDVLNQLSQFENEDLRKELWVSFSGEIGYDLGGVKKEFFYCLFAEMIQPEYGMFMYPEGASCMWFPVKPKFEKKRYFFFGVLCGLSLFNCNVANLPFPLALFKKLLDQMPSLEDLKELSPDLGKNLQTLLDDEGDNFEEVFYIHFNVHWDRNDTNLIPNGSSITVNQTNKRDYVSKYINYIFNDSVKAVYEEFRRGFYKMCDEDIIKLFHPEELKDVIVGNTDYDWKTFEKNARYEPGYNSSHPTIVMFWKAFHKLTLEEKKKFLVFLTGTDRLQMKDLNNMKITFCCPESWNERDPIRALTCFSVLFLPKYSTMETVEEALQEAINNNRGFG
Particulars: for Liganded: HERC5 Res# 994, uniprot Q9UII4. Put shortly: (§1)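 Read-out is loss of desthiobiotin iodoacetamide labelling at cysteines, measured on streptavidin-enriched tryptic peptides. Compound preincubation ran 1 hr at 25° C in PBS lysate holding 5 mg/ml proteome before the probe was added.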

For the next assay, the target named is T2, FASN Fatty acid synthase (Homo sapiens, UniProt P49327).
T2 construct: 200 μL of lysate containing 5 mg/ml proteome was treated with 2 μL of 100× compound stock; endogenous in cells
T2 sequence (P49327 whole entry): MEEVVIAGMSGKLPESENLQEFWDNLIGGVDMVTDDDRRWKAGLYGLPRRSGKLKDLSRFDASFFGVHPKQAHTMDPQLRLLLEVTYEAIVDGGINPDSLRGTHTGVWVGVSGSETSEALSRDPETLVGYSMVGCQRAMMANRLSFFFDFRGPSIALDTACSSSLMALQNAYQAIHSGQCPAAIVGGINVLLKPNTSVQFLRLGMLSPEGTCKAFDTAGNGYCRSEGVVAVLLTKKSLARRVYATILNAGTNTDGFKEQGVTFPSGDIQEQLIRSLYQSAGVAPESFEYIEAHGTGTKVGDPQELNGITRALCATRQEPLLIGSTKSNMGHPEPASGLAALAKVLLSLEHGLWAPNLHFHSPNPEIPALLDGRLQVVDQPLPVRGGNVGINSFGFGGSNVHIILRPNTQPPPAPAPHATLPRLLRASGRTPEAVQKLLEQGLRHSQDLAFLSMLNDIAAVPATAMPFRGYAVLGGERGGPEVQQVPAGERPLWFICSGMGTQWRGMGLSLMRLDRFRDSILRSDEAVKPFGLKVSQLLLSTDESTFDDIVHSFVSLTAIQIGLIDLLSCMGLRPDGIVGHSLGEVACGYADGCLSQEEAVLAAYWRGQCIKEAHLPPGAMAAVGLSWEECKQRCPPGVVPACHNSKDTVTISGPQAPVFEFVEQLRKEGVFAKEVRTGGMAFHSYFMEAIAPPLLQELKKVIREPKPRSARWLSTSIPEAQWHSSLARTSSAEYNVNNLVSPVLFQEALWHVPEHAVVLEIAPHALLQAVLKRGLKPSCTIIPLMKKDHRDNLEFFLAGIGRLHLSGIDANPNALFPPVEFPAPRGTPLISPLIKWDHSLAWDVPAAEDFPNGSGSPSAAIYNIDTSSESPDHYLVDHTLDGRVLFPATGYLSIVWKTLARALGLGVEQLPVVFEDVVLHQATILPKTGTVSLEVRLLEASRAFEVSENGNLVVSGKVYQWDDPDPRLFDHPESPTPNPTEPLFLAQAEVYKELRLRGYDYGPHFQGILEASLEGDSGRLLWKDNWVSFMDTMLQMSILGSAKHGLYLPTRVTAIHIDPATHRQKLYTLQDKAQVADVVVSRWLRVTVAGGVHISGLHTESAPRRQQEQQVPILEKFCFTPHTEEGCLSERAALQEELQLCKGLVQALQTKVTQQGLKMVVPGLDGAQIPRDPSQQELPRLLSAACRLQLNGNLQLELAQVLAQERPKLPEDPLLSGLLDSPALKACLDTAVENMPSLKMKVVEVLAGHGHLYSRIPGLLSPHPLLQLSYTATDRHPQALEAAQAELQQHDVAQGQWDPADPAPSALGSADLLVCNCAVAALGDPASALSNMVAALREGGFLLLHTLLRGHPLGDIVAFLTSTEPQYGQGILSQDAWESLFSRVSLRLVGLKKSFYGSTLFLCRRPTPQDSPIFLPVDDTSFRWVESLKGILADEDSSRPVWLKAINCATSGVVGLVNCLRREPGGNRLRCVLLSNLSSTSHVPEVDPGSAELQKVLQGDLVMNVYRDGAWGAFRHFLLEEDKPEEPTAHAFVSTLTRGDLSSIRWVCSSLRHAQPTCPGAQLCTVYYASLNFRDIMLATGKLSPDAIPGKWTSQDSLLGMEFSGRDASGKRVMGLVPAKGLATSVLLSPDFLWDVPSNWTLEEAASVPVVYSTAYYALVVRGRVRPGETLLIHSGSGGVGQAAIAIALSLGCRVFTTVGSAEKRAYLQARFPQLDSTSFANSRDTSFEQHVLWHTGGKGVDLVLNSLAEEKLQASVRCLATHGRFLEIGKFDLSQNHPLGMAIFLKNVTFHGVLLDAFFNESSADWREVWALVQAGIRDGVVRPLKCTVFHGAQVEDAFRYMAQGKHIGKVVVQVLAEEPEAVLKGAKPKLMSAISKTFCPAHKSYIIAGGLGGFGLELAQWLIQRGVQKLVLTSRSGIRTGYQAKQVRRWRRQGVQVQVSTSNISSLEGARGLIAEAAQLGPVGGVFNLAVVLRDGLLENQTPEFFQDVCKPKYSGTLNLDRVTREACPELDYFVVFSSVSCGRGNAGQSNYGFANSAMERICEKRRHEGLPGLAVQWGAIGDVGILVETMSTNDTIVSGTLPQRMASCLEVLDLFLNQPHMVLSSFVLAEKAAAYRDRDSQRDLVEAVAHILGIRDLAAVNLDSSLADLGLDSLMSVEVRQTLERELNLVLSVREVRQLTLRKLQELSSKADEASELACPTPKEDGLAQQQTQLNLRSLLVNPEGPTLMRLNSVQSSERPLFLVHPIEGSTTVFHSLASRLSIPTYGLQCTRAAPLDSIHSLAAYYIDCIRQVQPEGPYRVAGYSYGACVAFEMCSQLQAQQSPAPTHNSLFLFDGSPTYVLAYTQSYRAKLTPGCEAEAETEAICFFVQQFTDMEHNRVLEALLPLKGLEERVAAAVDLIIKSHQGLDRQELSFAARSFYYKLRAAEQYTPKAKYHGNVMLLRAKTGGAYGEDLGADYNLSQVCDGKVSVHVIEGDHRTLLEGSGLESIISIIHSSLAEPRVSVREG
Put shortly:
as §1

Assay [2] deals with T3, DECR2 Peroxisomal 2,4-dienoyl-CoA reductase (Homo sapiens, UniProt Q9NUI1).
T3 construct: 200 μL of lysate containing 5 mg/ml proteome was treated with 2 μL of 100× compound stock; endogenous in cells
T3 sequence (Q9NUI1 1-292): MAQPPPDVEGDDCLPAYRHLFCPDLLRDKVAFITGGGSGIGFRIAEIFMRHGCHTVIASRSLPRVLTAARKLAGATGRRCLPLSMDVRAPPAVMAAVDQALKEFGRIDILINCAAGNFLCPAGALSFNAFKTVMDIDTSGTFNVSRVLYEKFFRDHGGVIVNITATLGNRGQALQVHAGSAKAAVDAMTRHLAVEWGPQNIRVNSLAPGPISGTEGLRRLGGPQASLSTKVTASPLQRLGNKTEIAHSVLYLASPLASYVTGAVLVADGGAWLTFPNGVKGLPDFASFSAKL
The following applies: for Liganded: DECR2 Res# 120, uniprot Q9NUI1. Put shortly: as §1

Regarding `COc1ccc2c(c1)CCCN2C(=O)CCl` [KB02], the Liganded result in assay [1] is “YES”; on FASN Fatty acid synthase (FASN Res# 161, uniprot P49327) it was “YES”; in assay [2], “YES”.

With `O=C(CCl)Nc1cc(C(F)(F)F)cc(C(F)(F)F)c1` [KBO3], in assay [1], the Liganded result is reported as “YES”. In assay [1] (uniprot Q9UII4), the “100 Max” value was 83.4, the 100 ave is 83.4, the “500 Max” value was 96.8 and the 500 ave worked out at 96.8. Also, at FASN Fatty acid synthase (uniprot P49327), the “100 Max” value is given as −26.25 and the 100 ave is −26.25. Also, the Liganded result in assay [2] is listed as “YES”. For the same compound, in assay [2] (uniprot Q9NUI1), the “100 Max” value is listed as 66.9, the 100 ave came to 66.9, the “500 Max” value was found to be 85 and the 500 ave is 85.
